The values that follow come from patent publication US7244730B2, “2-iminopyrrolidine derivatives” (Eisai Co., Ltd, priority 2001, dated 2007).

Assay [1] has as its target T1, thrombin receptor (Homo sapiens, UniProt P25116).
T1 construct: centrifuged at 40,000 g for 60 minutes to yield platelet membrane; from tissue; host or cells: platelet membrane prepared from donor blood (platelet rich plasma)
T1 sequence (P25116 22-425): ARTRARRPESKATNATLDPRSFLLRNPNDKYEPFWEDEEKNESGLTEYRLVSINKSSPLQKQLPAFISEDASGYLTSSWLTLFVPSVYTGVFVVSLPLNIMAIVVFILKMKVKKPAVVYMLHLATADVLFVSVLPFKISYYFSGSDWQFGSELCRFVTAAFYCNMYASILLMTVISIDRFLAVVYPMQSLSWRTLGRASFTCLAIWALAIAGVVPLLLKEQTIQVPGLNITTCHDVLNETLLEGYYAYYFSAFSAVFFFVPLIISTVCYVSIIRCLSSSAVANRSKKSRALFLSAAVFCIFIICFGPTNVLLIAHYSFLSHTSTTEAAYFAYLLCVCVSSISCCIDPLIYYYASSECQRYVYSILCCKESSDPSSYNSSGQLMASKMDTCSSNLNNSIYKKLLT
Kind of assay: Receptor binding assay ([3H] high affinity TRAP, platelet membrane). The settings on record: platelet membrane of healthy adult; 25 nM [3H] high affinity TRAP; 37° C., 1 hour; read-out: RBA IC50. Here is the method:
Blood was sampled from a healthy adult who had taken no drugs for one week, and 3.8% citric acid (a ratio of 1:9 with respect to the blood) was added as an anticoagulant. The mixture was then centrifuged at 100 g for 10 minutes at room temperature to yield platelet rich plasma (PRP). The platelet precipitate obtained by centrifuging the PRP was homogenized with a Dounce homogenizer, and then centrifuged at 40,000 g for 60 minutes to yield platelet membrane. The platelet membrane was suspended in a solution prepared by adding DMSO (dimethyl sulfoxide) at 1% concentration to Buffer 1: a 50 mM Tris-HCl buffer containing 10 mM MgCl2 and 1 mM EGTA (ethylene glycol tetraacetic acid), and the suspension was stored at −80° C. Bovine albumin and DMSO were added to Buffer 1 at 0.1% and 20%, respectively, to make preparation solutions for the test compound. The test compounds (20 μl) diluted at various concentrations with the preparation solutions were added to a 96-well multiscreen plate. […] After then adding 100 μl of the previously prepared platelet membrane suspension (0.4 mg/ml) and mixing, incubation was performed at 37° C. for 1 hour. The reaction mixture was suction filtered and then rinsed 3 times with 200 μl of Buffer 1. Next, 30 μl of liquid scintillator was added for measurement of the radioactivity of the plate using a Top Counter (Packard), the value of the radioactivity in the presence of the test compound minus non-specific binding portion was divided by the specific binding value (the value of the binding in the absence of the compound minus the non-specific binding portion) to determine the binding ratio, from which the IC50 value was calculated. The non-specific binding was the value obtained with addition of 10 μM of high affinity TRAP.

Assay [2] relates to platelet rich plasma (PRP), thrombin-induced platelet aggregation. Kind of assay: Inhibitory effects on platelet aggregation using platelet rich plasma. The format is cell-based. The settings on record: Homo sapiens, 0.1 h, PRP of healthy adult, aggregation initiated with thrombin (0.5–1.5 units/ml), area under aggregation curve, 6 minutes, read-out: Thr IC50. Here is the method:
[Inhibitory Effects on Platelet Aggregation Using Platelet Rich Plasma]
Blood was sampled from a healthy adult who had taken no drugs for one week, and 3.8% citric acid (a ratio of 1:9 with respect to the blood) was added as an anticoagulant. The mixture was then centrifuged at 100 g for 10 minutes at room temperature to yield platelet rich plasma (PRP). The PRP-removed blood was further centrifuged at 1000 g for 10 minutes to yield platelet poor plasma (PPP). The number of platelet was counted using a multi-parameter automatic hemocyte counter (K4500, Sysmex), and the PRP was diluted to approximately 300,000/μl with the PPP. The platelet aggregation activity was determined in the following manner using an Aggregometer (MC Medical). GPRP-NH2 (final concentration 1 mM, 25 μl) was added as a fibrin polymerization inhibitor to the PRP (175 μl), after which Ca-free Tyrode solution (control) or the test compound suspension (25 μl) at different concentrations was added, incubation was performed at 37° C. for 3 minutes and then 25 μl of thrombin at the minimum concentration required to produce maximum aggregation (final concentration: optimum concentration among 0.5–1.5 units/ml) was added, for initiation of platelet aggregation. PRP and Ca-free Tyrode solution (control) or the preparation solutions at various concentrations were pre-incubated at 37° C. for 60 minutes, prior to the platelet aggregation reaction in some experiments. After addition of thrombin, the aggregation reaction was examined for 6 minutes and the areas under the aggregation curves were compared to determine the inhibition ratio, from which the IC50 value was calculated.

Assay [3] has as its system Vascular smooth muscle cells (rSMC). Kind of assay: Rat smooth muscle cell proliferation assay. The conditions noted are these: 48 h; male SD rat aorta rSMC; thrombin 0.1 unit/ml; 2 days; MTT, OD 590 nm; read-out: Rat SMC IC50. In kind it is cell-based. Here is the method: [Rat Smooth Muscle Cell Proliferation Assay]
Vascular smooth muscle cells (rSMC) were isolated from male SD rat aorta by the explant method. DMEM medium (Sigma) containing 10% fetal bovine serum (GibcoBRL), streptomycin and penicillin was used as the proliferation medium, and subculture was carried out at 37° C. in the presence of 5% CO2. Culture was initiated after adding 100 μl of rSMC suspension in proliferation medium at a concentration of 1×10^4 cells/ml, to a 96-well plate. After 3 days, cells were rinsed twice with 100 μl of DMEM medium, the medium was exchanged with 100 μl of DMEM medium containing 0.1% albumin (starvation medium), and serum starvation was initiated. The medium was exchanged two days after the serum starvation, 80 μl of starvation medium and 10 μl of the test compound diluted to different concentrations with the starvation medium were added, and then 10 μl of thrombin dissolved in the starvation medium (final concentration: 0.1 unit/ml) was added prior to further incubation for 2 days.
Upon adding 20 μl of MTT (3-[4,5-dimethylthiazol-2-yl]-2,5-diphenyltetrazolium bromide) dissolved in DPBS to 7.5 mg/ml, incubation was continued for 4 hours. The medium was removed by suction, 50 μl of a 10% SDS/0.029% ammonia solution was added, and the mixture was allowed to stand for 2 hours in a CO2 incubator for complete lysis of the cells. As an index of cell proliferation, the OD 590 nm was measured using a plate reader (EL340, BIO-TEK Instruments Inc.), and the control OD value (OD value in the absence of the test compound) minus the OD value in the presence of the test compound was divided by the control OD value minus the blank OD value (OD value without thrombin stimulation) to determine the inhibition ratio, from which the IC50 value was calculated.

The structures appear in SMILES notation. Where a name gives a salt, the structure may show the parent alone.

In the case of `CCOc1cc2c(c(F)c1OCC)C(=N)N(CC(=O)c1cc(N3C[C@@H](O)[C@H](OC)C3)c(OC)c(C(C)(C)C)c1)C2` [Example 12, 1-[3-tert-Butyl-5-((3R,4R)-3-hydroxy-4-methoxy-pyrrolidin-1-yl)-4-methoxy-phenyl]-2-(5,6-diethoxy-7-fluoro-1-imino-1,3-dihydro-isoindol-2-yl)-ethanone trifluoroacetate], the figures for the half-inhibitory concentration (IC50) in assay [1], in assay [2] and in assay [3] were 45 nM, 41 nM and 21 nM, respectively.

On to `CCOc1cc2c(c(F)c1OCC)C(=N)N(CC(=O)c1cc(NC(C)C)c(OC)c(C(C)(C)C)c1)C2` [Example 26, 1-(3-tert-Butyl-5-isopropylamino-4-methoxy-phenyl)-2-(5,6-diethoxy-7-fluoro-1-imino-1,3-dihydro-isoindol-2-yl)-ethanone hydrobromide], for which the half-inhibitory concentration (IC50) (commonly the concentration that inhibits the measured activity by half) is 17 nM in assay [1], 79 nM in assay [2] and 62 nM in assay [3].

Consider `CCOc1cc2c(c(F)c1OCC)C(=N)N(CC(=O)c1cc(N3CCNCC3)c(OC)c(C(C)(C)C)c1)C2` [Example 112, 1-(3-tert-Butyl-4-methoxy-5-piperazin-1-yl-phenyl)-2-(5,6-diethoxy-7-fluoro-1-imino-1,3-dihydro-isoindol-2-yl)-ethanone dihydrochloride], for which the concentration for half-maximal inhibition (IC50) is 30 nM in assay [1], 28 nM in assay [2] and 52 nM in assay [3].

In the case of `CCOc1cc2c(c(F)c1OCC)C(=N)N(CC(=O)c1cc(N3CCC(O)CC3)c(OC)c(C(C)(C)C)c1)C2` [Example 8, 1-[3-tert-Butyl-5-(4-hydroxy-piperidin-1-yl)-4-methoxyphenyl]-2-(5,6-diethoxy-7-fluoro-1-imino-1,3-dihydro-isoindol-2-yl)-ethanone hydrobromide], the IC50 amounted to 29 nM in assay [1], 84 nM in assay [2] and 23 nM in assay [3].
